Measurements as given in patent US12161675B2, “Production method for culture supernatant preparation” (LABORATORY OF CELL APPLIED TECHNOLOGIES, CO, priority 2018, dated 2024).

Legend:
VEGF protein = VEGF protein in ASC culture supernatant by QUANTIKINE ELISA; format: cell-based, human; conditions: 48 hours; for VEGF concentration: ASC culture supernatant, 0 ng/mL gave 199.5
Protocol: (§1) Adipose tissue-derived mesenchymal stromal cells extracted by subjecting normal human adipose tissues to an enzyme treatment were cultured using a DME medium (Dulbecco's modified eagle medium manufactured by Gibco, high glucose) including 20% fetal bovine serum (FBS) in a non-treated culture flask (manufactured by FALCON) as primary culture. The primary culture cells right before confluency were recovered by an enzyme treatment, seeded on a non-treated 12-well culture plate (manufactured by Sumitomo Bakelite Co., Ltd.) using the same medium, and cultured until becoming confluent.
(§2) After rinsing the cells, the medium was replaced with an FBS-free DME medium or HBSS (Hanks' balanced salt solution manufactured by Sigma-Aldrich Co.)-HEPES. Subsequently, 12 wells were divided into 4 groups each consisting of 3 wells, and the FBS-free DME medium was cultured in a 5% CO2 incubator (Reference example) and HBSS-HEPES was cultured in an incubator (Example). The culture supernatant in each well was recovered immediately after replacement (0 hours) and 3 hours, 6 hours, 24 hours, and 48 hours thereafter.
The culture supernatant recovered as described in cell culture and recovery of culture supernatant was passed through a filter having a diameter of 0.22 micrometers to prepare a sample for protein quantification.
Protein quantification of the sample was performed by using the QUANTIKINE ELISA (Human VEGF, FGF-2) kit from R&D Systems, Inc. and a quantitative value of each protein was obtained in accordance with the protocol of the kit.
The rinsed cells were divided into 4 groups each consisting of 3 wells and their culture media were replaced with HBSS-HEPES added with PGE1 (Prostandin manufactured by Maruishi Pharmaceutical. Co., Ltd.) at a concentration of 0 ng/ml, 4 ng/ml, 40 ng/ml, and 400 ng/ml, followed by culturing in an incubator (Example). At 48 hours after the replacement, the culture supernatant was recovered from each well and subjected to protein quantification using QUANTIKINE ELISA Human VEGF (manufactured by R&D Systems, Inc.). […] The complementary DNA was used to relatively quantify the VEGF gene expression level by real-time PCR (Rotor-Gene Q manufactured by QIAGEN).
After rising, three groups were each added with 3 mL, 2 mL, or 1 mL of HBSS (Hanks' balanced salt solution manufactured by Sigma-Aldrich Co.)-HEPES pH7.4 and cultured for 48 hours in an incubator (Example). Subsequently, each culture supernatant was recovered in a 5 mL tube (manufactured by BD Falcon) and the VEGF protein was quantified by using QUANTIKINE ELISA Human VEGF (manufactured by R&D Systems, Inc.). […] Then, the complementary DNA was used to relatively quantify the VEGF gene expression level by real-time PCR (Rotor-Gene Q manufactured by QIAGEN). […]

VEGF gene = VEGF gene expression by real-time PCR in adipose tissue-derived mesenchymal stromal cells (ASC); format: cell-based, human; conditions: 48 hours; for Value of mRNA relative quantification (VEGF): 0 ng/mL = 1.00
Protocol: as §1
After confirming that the cells became confluent, the medium was removed and the cell surface was rinsed with PBS (Dulbecco's phosphate buffered saline manufactured by DS Pharma Biomedical Co., Ltd.).
as §2
After recovering the culture supernatant as described above, an RNA extraction solution ISOGEN (Nippon Gene Co., Ltd., No. 319-90211) was added to each well in an amount of 400 microliters and the total RNAs were extracted from the cells in accordance with a conventional method. The precipitate of the total RNAs obtained by using Ethachinmate (Nippon Gene Co., Ltd., No. 312-01791) was dissolved in nuclease-free water. The concentration of the total RNAs was measured using 1.5 microliters of the dissolved RNAs by NanoDrop (Thermo Fisher Scientific). One hundred nanograms of the total RNAs thus obtained were used to synthesize complementary DNA using an iScript cDNA synthesis kit (Bio-Rad Laboratories, Inc., No. 1708891), and the resulting complementary DNA was used for quantifying an expression level of each gene by real-time PCR (Rotor-Gene Q manufactured by QIAGEN).
The synthesized DNA, primers (QuantiTect Primer Assay, QIAGEN) specific for the gene to be detected and quantified, and a real-time PCR agent (RotorGene SYBR Green, QIAGEN) were mixed, and real-time PCR was performed by using the Rotor-Gene Q system (QIAGEN) to amplify fragments of the gene to be detected and quantified. In this operation, primers specific for β-Actin as a housekeeping gene were used for amplification in the same manner, and this amplification curve was used as a reference to relatively calculate a quantitative value of the gene desired to be detected and quantified. […]

[1] = Storage stability of freeze-dried culture supernatant (VEGF protein by ELISA); format: physicochemical; conditions: for Value of VEGF relative quantification at each storage temperature: trehalose 250 mM
Protocol: As was in Example 5, the culture supernatant after 48 hours in the second culturing step was recovered and the culture supernatant obtained by centrifugal separation (740G, 5 minutes) was divided into 2 groups, a no addition group and a group with addition of 250 mM trehalose (manufactured by Hayashibara Co., Ltd.). Subsequently, the culture supernatant was passed through a filtration filter (KURABO INDUSTRIES Ltd.) having a membrane pore diameter of 0.2 micrometers and aliquoted into syringes (Terumo Corp.). The syringes were sealed in sterile bags, frozen in a −80° C. freezer, and then transferred to the inside of the freeze-drying device (Yamato Scientific Co., Ltd.) to perform freeze drying. After the completion of freeze drying, the syringes were sealed with luer caps for syringe (Terumo Corp.). The freeze-dried samples were stored in a sealed state under three temperature conditions of −80° C., 4° C., and 25° for 3 weeks. After 3 weeks, the freeze-dried samples were resuspended in water for injection (manufactured by Otsuka Pharmaceutical Co., Ltd.) and protein quantification was performed using QUANTIKINE ELISA Human VEGF (manufactured by R&D Systems, Inc.). As a quantitative value, a relative quantitative value of the VEGF protein at each storage temperature was calculated by taking a quantitative value of the VEGF protein included in the culture supernatant stored at −80° C. for 3 weeks as a reference.

[2] = ASC, HBSS-HEPES with PGE1 0 to 400 ng/ml

Compound	VEGF concentration (VEGF protein; HBSS-HEPES with PGE1 4 ng/mL) [pg/mL]	VEGF concentration (VEGF protein; HBSS-HEPES with PGE1 40 ng/mL)	VEGF concentration (VEGF protein; HBSS-HEPES with PGE1 400 ng/mL) [pg/mL]	protein amount (VEGF) in culture supernatant (VEGF protein; [2])	Value of mRNA relative quantification (VEGF) (VEGF gene; ASC in HBSS-HEPES with PGE1 4 ng/mL)	Value of mRNA relative quantification (VEGF) (VEGF gene; ASC in HBSS-HEPES with PGE1 40 ng/mL)	Value of mRNA relative quantification (VEGF) (VEGF gene; ASC in HBSS-HEPES with PGE1 400 ng/mL)	relative quantitative value of the mRNA expression level (VEGF) (VEGF gene; [2])	Value of VEGF relative quantification at each storage temperature ([1]; freeze-dried culture supernatant stored 3 weeks at 4° C., relative to −80° C.)	Value of VEGF relative quantification at each storage temperature ([1]; freeze-dried culture supernatant stored 3 weeks at 25° C., relative to −80° C.)	Value of VEGF relative quantification at each storage temperature ([1]; freeze-dried culture supernatant stored 3 weeks at −80° C. (reference))	VEGF protein after storage of freeze-dried culture supernatant ([1]; stored 3 weeks under the environment of 25° C., trehalose final concentration 250 mM)
CCCCC[C@H](O)/C=C/[C@H]1[C@H](O)CC(=O)[C@@H]1CCCCCCC(=O)O [PGE1]	201.8	281. 5 pg/mL	299.0	tended to increase	0.88	1.04	0.97	remained substantially constant				
OC[C@H]1O[C@H](O[C@H]2O[C@H](CO)[C@@H](O)[C@H](O)[C@H]2O)[C@H](O)[C@@H](O)[C@@H]1O [Trehalose, trehalose]									0.96	0.73	1.00	suppressed the reduction
